We go through one compound from patent publication US20260240826A1, “COMPOSITIONS FOR PD-L1 INHIBITION AND METHODS OF USE THEREOF” (ARIZONA BOARD OF REGENTS ON BEHALF OF THE UNIVERSITY OF …, priority 2023, published 2026).

The conditions of data set [1]: cited from earlier work.
The next data set relates to cleaved caspase-3. The data set can be described thus: cleaved caspase-3 immunohistochemistry of SKH-1 mouse skin. The following applies: BMS-202+SSL, 24 hr; vehicle+SSL over 60%. The class given is in vivo. The protocol:
(§1) UVB exposure was performed on AP-1 luciferase reporter mice on the SKH-1 genetic background at a dose of 2.75 kJ/m2 using FS40 bulbs (Q-Lab Corporation) as described before with the modification that mice were imaged 24 hr post UVB exposure using whole body bioluminescence instead of 48 hr post UVB using ear punches. SSL irradiation of SKH-1 mice (Charles River Laboratories, strain code 477) at a dose of 90 kJ/m2 UVA/6 kJ/m2 UVB was performed using UVA-340 bulbs (Q-Lab Corporation) as described before.
Caspase-3: Briefly, deparaffinized mouse skin slides were subjected to antigen retrieval using a Decloaking chamber in Rodent Decloaker HIER solution (both from Biocare, 115° C. 30 seconds, then 90° C. 10 seconds) followed by blocking with first 3% hydrogen peroxide (10 minutes) and then 5% normal goat serum in PBST (1 hour). Slides were then incubated in a 1:300 dilution of anti-cleaved caspase-3 antibody (#9661, Cell Signal Technology) at 4° C. overnight. […] For quantification, the average count (caspase 3-positive per total epidermal cells) in four fields/slide (20× field) was determined for each mouse skin specimen and calculated per group (n=3).
Mouse IHC data were analyzed using Kruskal-Wallis non-parametric data analysis (GraphPad Prism 10.0 software). […]

Another data set has as its system PD-L1. The data set is described as follows: SSL-induced PD-L1 protein in SKH-1 mouse epidermis, immunoblot. The class given is in vivo. Particulars: topical 8 mM; 24 hr post SSL. Here is the method:
as §1
Cells were lysed in RIPA containing 1×HALT protease+phosphatase inhibitor cocktail (ThermoFisher Scientific) and 100 mM PMSF and protein concentrations were assessed using BCA assay (Bio-Rad). Mouse epidermal protein lysates for immunoblot analysis were derived from scraped frozen SKH-1 skins as described previously (Blohm-Mangone et al., 2018). Twenty μg of protein/lane were loaded onto 10% gels for electrophoresis/immunoblotting using established protocols. Human cell lysate blots were probed with Cell Signaling PD-L1 antibody #13684, and mouse epidermal lysate blots were probed with Invitrogen PD-L1 antibody #PA5-20343. Beta-actin (Cell Signaling #4970) was used as a loading control. An anti-rabbit secondary antibody (Cell Signaling #7074) was used for all blots using standard chemiluminescent protocols (Thermo Scientific Pico ECL #34577). […]

In the case of `COc1nc(OCc2cccc(-c3ccccc3)c2C)ccc1CNCCNC(C)=O` [BMS-202], in data set [1], the “systemic availability upon topical application” value is “minimal systemic availability”. Besides, the “percentage of epidermal cells staining positive for cleaved caspase-3” value in the data set with cleaved caspase-3 is recorded as “approximately 10%”. Moreover, in the data set with PD-L1, the “UV-induced PD-L1 upregulation at the protein level (immunoblot)” value is on record as “significantly antagonized”; the “antagonistic effect on PD-L1 protein, pre- and post-UV application versus pre only” value is “more pronounced”.
